Eleven compounds from patent US20090018134A1, “Compounds - 945” (AstraZeneca AB, priority 2007, published 2009) can be followed below.

The term IC50 denotes the midpoint of a concentration-inhibition curve.

The target of the test is T1, mTOR (Homo sapiens, UniProt P42345).
T1 construct: FLAG; made in house
Kind of test: In Vitro mTOR Kinase Assay (Echo), Test (a)(ii). The class given is biochemical. As to conditions: table of enzyme assay Test (a)(ii); read-out: Test (a)(ii) IC50. Summed up: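 Enzyme: HEK293-expressed, FLAG-purified mTOR C-terminal fragment (aa 1362-2549). Rxn 2 h RT with biotinylated peptide, stopped with EDTA 50 mM/BSA/Tris pH 7.4. Detection: T389 phospho-antibody AlphaScreen, 680 nm excitation. IC50.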

T1 sequence (P42345 1362-2549): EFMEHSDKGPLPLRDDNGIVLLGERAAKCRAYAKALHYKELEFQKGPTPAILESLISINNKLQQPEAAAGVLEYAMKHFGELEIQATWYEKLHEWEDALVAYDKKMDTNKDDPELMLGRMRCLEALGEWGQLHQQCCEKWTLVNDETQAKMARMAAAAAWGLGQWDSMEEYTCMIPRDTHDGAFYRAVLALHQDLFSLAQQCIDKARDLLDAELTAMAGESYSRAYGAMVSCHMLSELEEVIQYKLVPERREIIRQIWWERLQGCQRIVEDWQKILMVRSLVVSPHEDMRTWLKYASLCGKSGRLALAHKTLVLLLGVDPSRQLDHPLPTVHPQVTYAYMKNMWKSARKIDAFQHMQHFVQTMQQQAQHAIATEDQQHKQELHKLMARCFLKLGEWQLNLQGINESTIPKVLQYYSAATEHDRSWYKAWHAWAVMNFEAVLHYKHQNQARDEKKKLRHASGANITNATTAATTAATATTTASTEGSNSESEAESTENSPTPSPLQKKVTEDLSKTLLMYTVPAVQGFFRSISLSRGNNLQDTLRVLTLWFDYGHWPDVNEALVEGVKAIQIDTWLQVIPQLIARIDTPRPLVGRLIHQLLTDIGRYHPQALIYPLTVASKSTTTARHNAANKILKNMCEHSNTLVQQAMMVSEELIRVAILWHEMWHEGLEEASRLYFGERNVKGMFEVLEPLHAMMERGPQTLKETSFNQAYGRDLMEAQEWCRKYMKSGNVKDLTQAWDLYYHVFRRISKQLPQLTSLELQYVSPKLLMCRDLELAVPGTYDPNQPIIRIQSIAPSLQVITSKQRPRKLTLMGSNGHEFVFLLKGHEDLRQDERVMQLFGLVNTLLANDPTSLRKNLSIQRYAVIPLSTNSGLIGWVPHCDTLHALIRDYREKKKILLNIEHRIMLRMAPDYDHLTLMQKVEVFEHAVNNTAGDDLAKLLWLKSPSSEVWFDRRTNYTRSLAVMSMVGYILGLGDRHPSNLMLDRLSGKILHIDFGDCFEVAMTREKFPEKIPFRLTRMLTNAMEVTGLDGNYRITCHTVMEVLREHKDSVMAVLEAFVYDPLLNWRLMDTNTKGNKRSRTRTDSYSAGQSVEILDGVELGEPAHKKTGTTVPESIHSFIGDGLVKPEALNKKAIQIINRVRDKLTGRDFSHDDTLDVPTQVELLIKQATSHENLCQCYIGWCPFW

As for `C[C@H](CO)NC(=O)Nc1ccc(-c2nc(N3CCOC[C@@H]3C)cc(C3(S(=O)(=O)C4CC4)CCC3)n2)cc1` [Example 64y, 1-[4-[4-(1-cyclopropylsulfonylcyclobutyl)-6-[(3S)-3-methylmorpholin-4-yl]pyrimidin-2-yl]phenyl]-3-[(2R)-1-hydroxypropan-2-yl]urea], the IC50 came to 12.5 nM.

Consider `C[C@H]1COCCN1c1cc(C2(S(=O)(=O)C3CC3)CCC2)nc(-c2ccc(NC(=O)NCCCO)cc2)n1` [Example 64z, 1-[4-[4-(1-cyclopropylsulfonylcyclobutyl)-6-[(3S)-3-methylmorpholin-4-yl]pyrimidin-2-yl]phenyl]-3-(3-hydroxypropyl)urea], for which the half-inhibitory concentration (IC50) was 8.66 nM. Regarding `C[C@H]1COCCN1c1cc(C2(S(=O)(=O)c3ccc(F)cc3)CCC2)nc(-c2ccc(NC(=O)NCc3ncc[nH]3)cc2)n1` [Example 65, 1-[4-[4-[1-(4-Fluorophenyl)sulfonylcyclobutyl]-6-[(3S)-3-methylmorpholin-4-yl]pyrimidin-2-yl]phenyl]-3-(1H-imidazol-2-ylmethyl)urea], the IC50 was found to be 30 nM. With `C[C@H]1COCCN1c1cc(C2(S(=O)(=O)c3ccc(F)cc3)CCC2)nc(-c2ccc(NC(=O)NCCCO)cc2)n1` [Example 65a, 1-[4-[4-[1-(4-fluorophenyl)sulfonylcyclobutyl]-6-[(3S)-3-methylmorpholin-4-yl]pyrimidin-2-yl]phenyl]-3-(3-hydroxypropyl)urea], the IC50 was 6.88 nM. The same measure for `C[C@H]1COCCN1c1cc(C2(S(=O)(=O)c3ccc(F)cc3)CCC2)nc(-c2ccc(NC(=O)NCCO)cc2)n1` [Example 65b, 1-[4-[4-[1-(4-fluorophenyl)sulfonylcyclobutyl]-6-[(3S)-3-methylmorpholin-4-yl]pyrimidin-2-yl]phenyl]-3-(2-hydroxyethyl)urea]: 3.42 nM. As to `C[C@H]1COCCN1c1cc(C2(S(=O)(=O)c3ccc(F)cc3)CCC2)nc(-c2ccc(NC(=O)NC(C)(C)CO)cc2)n1` [Example 65c, 1-[4-[4-[1-(4-fluorophenyl)sulfonylcyclobutyl]-6-[(3S)-3-methylmorpholin-4-yl]pyrimidin-2-yl]phenyl]-3-(1-hydroxy-2-methylpropan-2-yl)urea], the IC50 amounted to 15.1 nM.

Consider `C[C@@H](CO)NC(=O)Nc1ccc(-c2nc(N3CCOC[C@@H]3C)cc(C3(S(=O)(=O)c4ccc(F)cc4)CCC3)n2)cc1` [Example 65d, 1-[4-[4-[1-(4-fluorophenyl)sulfonylcyclobutyl]-6-[(3S)-3-methylmorpholin-4-yl]pyrimidin-2-yl]phenyl]-3-[(2S)-1-hydroxypropan-2-yl]urea], for which the half-maximal inhibitory concentration (IC50) was found to be 4.48 nM. As for `C[C@H](CO)NC(=O)Nc1ccc(-c2nc(N3CCOC[C@@H]3C)cc(C3(S(=O)(=O)c4ccc(F)cc4)CCC3)n2)cc1` [Example 65e, 1-[4-[4-[1-(4-fluorophenyl)sulfonylcyclobutyl]-6-[(3S)-3-methylmorpholin-4-yl]pyrimidin-2-yl]phenyl]-3-[(2R)-1-hydroxypropan-2-yl]urea], the figure is 11.4 nM; as for `C[C@H]1COCCN1c1cc(C2(S(=O)(=O)c3nccs3)CC2)nc(-c2ccc(NC(=O)NCCO)cc2)n1` [Example 66, 3-(2-Hydroxyethyl)-1-[4-[4-[(3S)-3-methylmorpholin-4-yl]-6-[1-(1,3-thiazol-2-ylsulfonyl)cyclopropyl]pyrimidin-2-yl]phenyl]urea], 3.03 nM. For the compound `C[C@H]1COCCN1c1cc(C2(S(=O)(=O)c3nccs3)CC2)nc(-c2ccc(NC(=O)NCCCO)cc2)n1` [Example 66a, 3-(3-hydroxypropyl)-1-[4-[4-[(3S)-3-methylmorpholin-4-yl]-6-[1-(1,3-thiazol-2-ylsulfonyl)cyclopropyl]pyrimidin-2-yl]phenyl]urea], the IC50 amounted to 4.15 nM.

For the compound `C[C@H]1COCCN1c1cc(C2(S(=O)(=O)c3nccs3)CC2)nc(-c2ccc(NC(=O)NCc3ncc[nH]3)cc2)n1` [Example 66b, 3-(1H-imidazol-2-ylmethyl)-1-[4-[4-[(3S)-3-methylmorpholin-4-yl]-6-[1-(1,3-thiazol-2-ylsulfonyl)cyclopropyl]pyrimidin-2-yl]phenyl]urea], the concentration for half-maximal inhibition (IC50) is 24.6 nM.
